The source made the active and inactive calls. The rule behind the calls is not given here.

System in one experiment: not listed separately
Put plainly: inducers of V. cholerae light production, dose response, BH1578, luxS and cqsA deficient, dry powder (AID 651854). Conditions: V. cholerae BH1578 lux reporter, luminescence, 6 h; at 30 µM (top of the series).
`CC(C)NC(=O)Nc1ccc2c(c1)C(=O)N([C@H](C)CO)C[C@H](C)[C@@H](CN(C)Cc1ccncc1)OCCCC[C@@H](C)O2`: the light induction is 3.45% (inactive).

Staying with this experiment, now noted: V. cholerae BH1578 lux reporter, luminescence, 6 h; at 35 µM (top of the series).
For `O=[N+]([O-])c1ccc(N2CCOCC2)c2c1no[n+]2[O-]`, the light induction was 0.322% (inactive).
As to `C[C@H]1CN([C@@H](C)CO)C(=O)c2cc(NC(=O)CCC(F)(F)F)ccc2O[C@H]1CN(C)Cc1ccc(Cl)c(Cl)c1`, the light induction was 1.05% (inactive).
With `Cn1nc(NC(=O)c2ccco2)c2c(F)cccc21`, the light induction is -0.824% (inactive).
`C[C@H](CO)N1C[C@H](C)[C@H](CN(C)C(=O)Cc2ccncc2)Oc2cc(C3=CCCCC3)ccc2S1(=O)=O`: the light induction is 0.158% (inactive).
On to `Cc1ccccc1-c1ccc2c(c1)O[C@H](CN(C)Cc1ccc(C(=O)O)cc1)[C@@H](C)CN([C@H](C)CO)S2(=O)=O`, for which the light induction is -0.148% (inactive).
As to `CCn1nnc(NCc2ccc(N3CCCC3)cc2)n1`, the light induction was 10.7% (inactive).
`O=C(O)C[C@@H]1CC[C@H](NC(=O)c2ccncc2)[C@@H](CO)O1`: the light induction was 0.322% (inactive).
Take `Cc1ccc2cc3c(NC(=O)c4ccccn4)nn(C)c3nc2c1`: the light induction was -0.663% (inactive).
On to `COc1ccc(C#Cc2cnc3c(c2)C(=O)N([C@@H](C)CO)C[C@H](C)[C@H](CN(C)C(=O)CC2CC2)O3)cc1`, for which the light induction is 0% (inactive).
As to `C[C@H](CO)N1C[C@H](C)[C@@H](CN(C)S(=O)(=O)c2ccccc2F)Oc2cc(-c3ccncc3)ccc2S1(=O)=O`, the light induction is 0% (inactive).
On the same count and under the same terms, for `CC(C)c1cccc(NC(=O)C[C@H]2CC[C@H]3[C@@H](COc4ccc(NC(=O)c5ccc(C#N)cc5)cc4C(=O)N3C)O2)c1` the value was 0.322% (inactive).
As for `CCCN(C)C[C@@H]1Oc2cc(C#Cc3cccc(OC)c3)ccc2S(=O)(=O)N([C@@H](C)CO)C[C@@H]1C`, the light induction is -0.148% (inactive).
Still for that read-out and setting: for `COCC(=O)N[C@@H]1C=C[C@H](CC(=O)N2CCCCC2)O[C@@H]1CO` the value was 0.262% (inactive); for `O=C(C[C@@H]1CC[C@@H]2[C@H](COC[C@H](O)CN2Cc2ccc(C(F)(F)F)cc2)O1)N1CCc2ccccc2C1`, 0.313% (inactive); for `COc1ccc(-c2ccc([C@@H]3[C@H](C#N)N(C(=O)NC4CCCCC4)[C@H]3CO)cc2)cc1`, -0.497% (inactive).
As for `COc1ccc(C#Cc2ccc3c(c2)O[C@H](CN(C)C(=O)CN2CCOCC2)[C@@H](C)CN([C@@H](C)CO)S3(=O)=O)cc1`, the light induction was 0% (inactive).
On to `CN1C(=O)c2cc(NS(C)(=O)=O)ccc2OC[C@@H]2O[C@H](CC(=O)NCc3ccc(-c4ccccc4)cc3)CC[C@@H]21`, for which the light induction is 0.313% (inactive).
For `Cc1noc(C)c1NC(=O)N(C)C[C@H]1Oc2ccc(NC(=O)CCC(F)(F)F)cc2C(=O)N([C@H](C)CO)C[C@H]1C`, the light induction was 0% (inactive).
As to `CC=Cc1ccc2n(c1=O)C[C@@H]1[C@@H](CO)[C@H](C(=O)NCC)N(Cc3ccccc3Cl)[C@H]21` (mixture of isomers), the light induction was 0.694% (inactive).
In the case of `CCC(=O)Nc1nn(C)c2nc3cc(C)ccc3cc12`, the light induction is -0.824% (inactive).
As for `Cc1ccc2cc3c(NC(=O)c4ccccc4)nn(C)c3nc2c1`, the light induction was 0.503% (inactive).
On the same count and under the same terms, the figure for `CO[C@@H]1CC[C@H]2CCOc3ccc(C#N)cc3C(=O)N(C)[C@H](C)C(=O)N(C)C[C@@H]1O2` is 0.313% (inactive); for `C[C@H]1CCCCO[C@H](CN(C)C(=O)c2ccccc2)[C@@H](C)CN([C@@H](C)CO)C(=O)c2cc(NC(=O)c3ccccc3)ccc2O1` it is -0.733% (inactive).
The same measure, in the same setting: the figure for `C[C@H](CO)N1C[C@H](C)[C@@H](CN(C)C(=O)NC2CCCCC2)OCc2ccccc2-c2c(n(C)c3ccccc23)C1=O` is 0% (inactive); for `C[C@H]1CN([C@@H](C)CO)C(=O)Cc2cc(NS(C)(=O)=O)ccc2O[C@H]1CN(C)Cc1ccc(-c2ccccc2)cc1` it is -0.148% (inactive); for `CO[C@H]1CN(C)C(=O)c2cc(NS(=O)(=O)c3c(C)noc3C)ccc2OC[C@H](C)NC[C@@H]1C` it is 0% (inactive).
Turning to `CO[C@@H]1CN(C)C(=O)c2cc(NC(=O)C3CC3)ccc2OC[C@H](C)N(C(=O)NC(C)C)C[C@H]1C`, the light induction was 1.05% (inactive).
On the same count and under the same terms, the figure for `C[C@H](NC(=O)C[C@@H]1CC[C@H]2[C@H](COc3ccc(NS(=O)(=O)c4ccc(Cl)cc4)cc3C(=O)N2C)O1)c1ccccc1` is 0.158% (inactive); for `O=C(N[C@@H]1C=C[C@H](CC(=O)N2CCCCC2)O[C@H]1CO)c1ccc2c(c1)OCO2` it is 0% (inactive).
Consider `O=[N+]([O-])c1ccc(N(CCO)CCO)c2c1no[n+]2[O-]`, for which the light induction was 9.14% (inactive).
Regarding `CCCC#Cc1cnc2c(c1)C(=O)N([C@H](C)CO)C[C@H](C)[C@H](CN(C)C(=O)CCN1CCCCC1)O2`, the light induction was -0.148% (inactive).
On the same count and under the same terms, the figure for `C[C@@H]1CN([C@@H](C)CO)S(=O)(=O)c2ccc(-c3ccncc3)cc2O[C@@H]1CN(C)S(=O)(=O)c1ccccc1F` is 0.546% (inactive); for `CCOC(=O)c1cc2c(c(-c3cccc(Br)c3)n1)[C@@H](CCO)N(C(=O)NC(C)C)C2` it is 0.322% (inactive).
In the case of `Cc1ccc2cc3c(NC(=O)c4ccco4)nn(CC(C)C)c3nc2c1`, the light induction is 2.93% (inactive).
Turning to `CO[C@H]1CN(C)C(=O)c2cccc(C#N)c2OCC[C@@H]2CC[C@@H](OC)[C@@H](CN(C)C(=O)[C@H]1C)O2`, the light induction is 5.31% (inactive).
On the same count and under the same terms, the figure for `COc1ccc(CNC(=O)N(C)C[C@@H]2OCc3ccccc3-c3c(n(C)c4ccccc34)C(=O)N([C@@H](C)CO)C[C@H]2C)cc1` is 1.27% (inactive).
On the same count and under the same terms, for `CO[C@@H]1CC[C@@H]2CCOc3ccc(C#N)cc3C(=O)N(C)C[C@H](C)C(=O)N(C)C[C@H]1O2` the value was 0.497% (inactive).
For the compound `Cc1noc(C)c1NC(=O)N(C)C[C@@H]1Oc2ccc(NC(=O)CCC(F)(F)F)cc2C(=O)N([C@@H](C)CO)C[C@@H]1C`, the light induction was 0.322% (inactive).

The subject of another experiment is V. cholerae BH1578 lux reporter, luminescence, 6 h. The description is as above.
Details: not given
As for `CCn1nc(NC(=O)c2ccco2)c2cc3ccccc3nc21`, the AC40 is 5.43 µM.
`Cn1c(C(=O)NC2CCCCC2)cc2c(=O)n(C)c3ccccc3c21`: the AC40 was > 35 µM (inactive).
With `Cc1ccc2cc3c(NC(=O)C4CCCCC4)nn(C)c3nc2c1`, the AC40 was less than 0.135 µM.
As to `Cc1cc(C)c2c(NC(=O)c3ccco3)nn(C)c2n1`, the AC40 is > 35 µM (inactive).
On to `CCn1nc(NC(=O)c2ccco2)c2cc3ccc(C)cc3nc21`, for which the AC40 is > 35 µM (inactive).
`COc1ccc(-c2ccc([C@H]3[C@@H](C#N)N(C(=O)NC4CCCCC4)[C@H]3CO)cc2)cc1`: the AC40 was > 35 µM (inactive).
Consider `O=C(NC1CCCCC1)C(=O)c1c[nH]c2ccccc12`, for which the AC40 was > 35 µM (inactive).
Regarding `CC(C)COC(=O)CNc1n[nH]c(=S)[nH]c1=O`, the AC40 was > 35 µM (inactive).
Same read-out and setting: for `Cc1cccc2cc3c(NC(=O)c4ccco4)nn(C)c3nc12` the value was less than 0.135 µM.
Still for that read-out and setting: the figure for `C[C@H](CO)N1C[C@H](C)[C@@H](CN(C)S(=O)(=O)c2ccccc2)Oc2c(NC(=O)Nc3ccc4c(c3)OCO4)cccc2C1=O` is > 16 µM (inactive); for `CCn1nnnc1NCc1ccc(N2CCCC2)cc1` it is less than 0.135 µM.
For the compound `CCCn1nnnc1NCc1ccc(N2CCCC2)cc1`, the AC40 was less than 0.135 µM.

(Values after PubChem BioAssay AID651854 (Broad Institute, 2012).)
